Data from patent publication US11779014B2, “Adjuvants” (SYNGENTA PARTICIPATIONS AG, priority 2017, dated 2023).

Experiments:
Type in all cases: in vivo
[1] = system: Commelina benghalensis (COMBE); test: Glasshouse adjuvancy test for nicosulfuron on COMBE; conditions: 21 DAA
Method: (§1) The biological efficacies of blends of an oleyl 20 ethoxylate uncapped surfactant with an oleyl 20 ethoxylate surfactant with an n-hexyl ether cap as adjuvants for the herbicide nicosulfuron were tested in a glasshouse against three weed species sown into standard soil in pots and cultivated under controlled conditions in a glasshouse (24/18° C. day/night; 16 hours light; 65% humidity). Nicosulfuron was added to the spray tank as a standard WG (water dispersible granule) formulation. The plants were sprayed with nicosulfuron at rates of 15 or 60 grams of pesticide per hectare using a laboratory track sprayer which delivered the aqueous spray composition at a rate of 200 litres per hectare, using a flat fan nozzle (Teejet 11002VS) at 2 bar. The adjuvants were added to the spray solution at a total rate of 0.1 or 0.2% w/v in all cases and at extra lower rates for the oleyl 20EO alone and its 1:1 blend with the oleyl 20EO n-hexyl ether to show the dose response to these adjuvants. All spray solutions also contained 10% w/w of iso-propanol. The weed species and their BBCH growth stage at spraying were Chenopodium album (CHEAL; growth stage 15), Digitaria sanguinalis (DIGSA; growth stage 14), and Commelina benghalensis (COMBE; growth stage 14). Each spray test was replicated three times. The test plants were then grown in a glasshouse under controlled conditions (24/18° C. day/night; 16 hours light; 65% humidity) and watered twice a day. The efficacy of the herbicide was assessed visually and expressed as a percentage of the leaf area killed. Samples were assessed at a time period of 21 days following application. The following tables (3-8) show the effect of blends of the two surfactants at a total concentration of 0.2 and 0.1%. In each case the blends were 1:0, 3:1, 1:1, 1:3 and 0:1 w/w of oleyl 20EO:oleyl 20 EO n-hexyl ether.

[2] = system: Digitaria sanguinalis (DIGSA); test: Glasshouse adjuvancy test for nicosulfuron on DIGSA
Method: as §1, with “ether. The biological efficacies of blends of oleyl 20 ethoxylate and oleyl 20EO ethoxylate with a benzoate cap as adjuvants for the herbicide nicosulfuron were tested in a glasshouse using the same method as for ‘Example 1’ but against just two weed species and with just 0.2% w/v total adjuvant concentration. The weed species and their BBCH growth stage at spraying HI were Chenopodium album (CHEAL; growth stage 13-15) and Digitaria sanguinalis (DIGSA; growth stage 14-22).” for “ether.”

[3] = system: Setaria viridis (SETVI); test: Glasshouse adjuvancy test for pinoxaden on SETVI; conditions: total surfactant 0.2% w/v, 21 days
Method: Pinoxaden was added to the spray tank as a standard EC (emulsifiable concentrate) formulation. The plants were sprayed with pinoxaden at rates of 7.5 or 15 grams of pesticide per hectare using a laboratory track sprayer which delivered the aqueous spray composition at a rate of 200 litres per hectare, using a flat fan nozzle (Teejet 11002VS) at 2 bar. The spray solutions also contained the oleyl 20EO alone or in the 1:1 blends with the capped surfactants. The adjuvants were added to the spray solution at a total surfactant rate of 0.2% w/v. All spray solutions also contained 10% w/w of iso-propanol. The weed species and their BBCH growth stage at spraying were Avena fatua (AVEFA; growth stage 13) and Setaria viridis (SETVI; growth stage 13). Each spray test was replicated three times. The test plants were then grown in a glasshouse under controlled conditions (20/16° C. day/night; 16 hours light; 65% humidity) and watered twice a day. The efficacy of the herbicide was assessed visually and expressed as a percentage of the leaf area killed. Samples were assessed at a time period of 21 days following application.

[4] = system: Digitaria sanguinalis (DIGSA); test: Glasshouse adjuvancy test for mesotrione on DIGSA; conditions: total surfactant 0.2% w/v, 21 days
Method: Mesotrione was added to the spray tank as a standard SC (suspension concentrate) formulation. The plants were sprayed with mesotrione at rates of 30 or 60 grams of pesticide per hectare using a laboratory track sprayer which delivered the aqueous spray composition at a rate of 200 litres per hectare, using a flat fan nozzle (Teejet 11002VS) and an application volume of 200 litre/ha (at 2 bar). The spray solutions also contained the oleyl 20EO alone or in 1:1 blends with the capped surfactants. The adjuvants were added to the spray solution at a total surfactant rate of 0.2% w/v. All spray solutions also contained 10% w/w of iso-propanol. The weed species and their BBCH growth stage at spraying were Brachiaria platyphylla (BRAPL; growth stage 12-13), Commelina benghalensis (COMBE; growth stage 12-14) and Digitaria sanguinalis (DIGSA; growth stage 13). Each spray test was replicated three times. The test plants were then grown in a glasshouse under controlled conditions (24/18° C. day/night; 16 hours light; 65% humidity) and watered twice a day. The efficacy of the herbicide was assessed visually and expressed as a percentage of the leaf area killed. Samples were assessed at a time period of 21 days following application

[5] = nicosulfuron 15 g ai/ha, 0.1% surfactant total concentration
[6] = nicosulfuron 15 g ai/ha, 0.2% surfactant total concentration
[7] = nicosulfuron 60 g ai/ha, 0.1% surfactant total concentration
[8] = nicosulfuron 60 g ai/ha, 0.2% surfactant total concentration
[9] = nicosulfuron 15 g ai/ha, 0.1% total surfactant concentration, 21 days, Table 8
[10] = nicosulfuron 15 g ai/ha, 0.2% total surfactant concentration, 21 days, Table 7
[11] = nicosulfuron 60 g ai/ha, 0.1% total surfactant concentration, 21 days, Table 8
[12] = nicosulfuron 60 g ai/ha, 0.2% total surfactant concentration, 21 days, Table 7

| Compound | Mean control [1, 5] [%] | Mean control [1, 6] [%] | Mean control [1, 7] [%] | Mean control [1, 8] [%] | Mean control [2, 9] [%] | Mean control [2, 10] [%] | Mean control [2, 11] [%] | Mean control [2, 12] [%] | Mean control ([3]; pinoxaden 7.5 g ai/ha) [%] | Mean control ([3]; pinoxaden 15 g ai/ha) [%] | Mean control ([4]; mesotrione 30 g ai/ha) [%] | Mean control ([4]; mesotrione 60 g ai/ha) [%] | Mean control ([2]; dose response, nicosulfuron 15 g ai/ha, adjuvant 0.05%) [%] | Mean control ([2]; dose response, nicosulfuron 15 g ai/ha, adjuvant 0.1%) [%] | Mean control ([2]; dose response, nicosulfuron 15 g ai/ha, adjuvant 0.2%) [%] | Mean control ([2]; dose response, nicosulfuron 60 g ai/ha, adjuvant 0.05%) [%] | Mean control ([2]; dose response, nicosulfuron 60 g ai/ha, adjuvant 0.1%) [%] | Mean control ([2]; dose response, nicosulfuron 60 g ai/ha, adjuvant 0.2%) [%] | Mean control ([2]; nicosulfuron 15 g ai/ha, 0.2% w/v total adjuvant, Example 3, growth stage 14-22) [%] | Mean control ([2]; nicosulfuron 60 g ai/ha, 0.2% w/v total adjuvant, Example 3, growth stage 14-22) [%] |
| --- | --- | --- | --- | --- | --- | --- | --- | --- | --- | --- | --- | --- | --- | --- | --- | --- | --- | --- | --- | --- |
| Oleyl 20EO n-hexyl ether | 70 | 80 | 73.3 | 72.5 | 81.7 | 73.3 | 75 | 81.7 |  |  |  |  |  |  |  |  |  |  |  |  |
| CCCCCCCC/C=C\CCCCCCCCOCCOCCOCCOCCOCCOCCOCCOCCOCCOCCOCCOCCOCCOCCOCCOCCOCCOCCOCCOCCO [Oleyl 20EO, oleyl 20 ethoxylate] | 63.3 | 80 | 63.3 | 72.5 | 76.7 | 83.3 | 60 | 80 | 98.0 | 98.3 | 68.3 | 75.0 | 60.0 | 76.7 | 83.3 | 53.3 | 60.0 | 80.0 | 91.3 | 85.0 |
